Experimental data as given in patent US20220218679A1, “NOVEL COMPOUNDS AND PHARMACEUTICAL COMPOSITIONS THEREOF FOR THE TREATMENT OF INFLAMMATORY DISORDERS” (Galapagos NV, priority 2019, published 2022).
Values after ≈ are worked out from the molar mass of the structure shown. Where two headings read alike, the source gives them in different places.

How the values were obtained:
[1] = Thermodynamic solubility; format: physicochemical; conditions: 37 °C, thermodynamic from solid
[2] = tested on: CL097 triggered TNFα release in human whole blood; test: Ex vivo human TNFα release inhibition (human whole blood assay); format: cell-based; conditions: Homo sapiens, CL097 2 μg/mL, 3 h 30 min at 37° C.
From the text: 4.10.1. Ex Vivo Human IFNα and TNFα Release Inhibition (Human Whole Blood Assay)
The aim of the assay is to evaluate the activity of compounds of the invention on the activated TLR/IRAK-4 pathway in an ex vivo human whole blood setting. Toll-like receptors (TLRs) are pattern recognition receptors that recognize a wide variety of microbial molecules, called pathogen-associated molecular patterns (PAMPs). Human TLR7 and TLR8 recognize imidazoquinoline compounds (e.g., CL097—CAS n #1026249-18-2) and single stranded RNAs as their natural ligands. Activation of TLRs leads to the production of several cytokines (e.g., IFNα, TNFα, IL-8, IL-6) by the TLR agonist-treated cells, whereas IRAK4 leads to the production of IFNα. Cytokine release is used as readout in this assay and represents a measure for the level of inhibition of the TLR/IRAK-4 pathway by the tested compound. It should be noted that in the context of the complete organism, other sources for these cytokines exist that are not dependent on the TLR/IRAK-4 pathway, such as e.g., macrophages (upon activation of the Fcγ receptor (Yan et al., 2012)) or T cells (upon activation of the T cell receptor (Brehm et al., 2005)).
4.10.1.1. Experimental Design
Blood was collected from healthy volunteers into lithium heparin tubes by venipuncture, then gently inverted several times to prevent clotting and incubated for at least 15 min at 37° C. on a rocking mixer shaker. Then, 100 μL of blood was dispensed into polypropylene 96-well microplate and pre-incubated in duplicate with 0.3% DMSO or test compound at different concentrations (from 30 to 0.01 μM, 3-fold dilutions to get 0.3% DMSO at the final) for 15 min at 37° C. After this pre-incubation, blood was triggered with CL097 (2 μg/mL from 1 mg/mL solution in water; InvivoGen, tlrl-c97) for 3 h 30 min at 37° C. Microtubes were centrifuged at 5000×g for 10 min at 4° C. and approximately 40 μL of plasma were collected into a polystyrene 96-well plate. Plasma could be analyzed freshly, within 30 min after triggering, or frozen at −80° C. Finally, the quantification of TNFα and IFNα were performed in the plasma using AlphaLISA Kit for TNFα and IFNα according to the manufacturer's instructions and read on the Ensight (PerkinElmer).
For each blood sample, the TNFα concentrations of the samples were determined from the fit. Data were then expressed a percentage of inhibition PIN for each replicate using the formula:
With mean TNFα with CL097=mean TNFα concentration of replicate samples triggered with CL097; TNFαsample1=TNFα concentration of sample 1; mean TNFα with vehicle=mean TNFα concentration of replicate samples treated with vehicle.
Curve fitting for pIC50 determination were generated using mean PIN±sem. Graphs and pIC50 calculations were derived using Prism 5.03 software (GraphPad).

[3] = Fasted State Simulated Intestine Fluid (FaSSIF), fassif, Fasted State Simulated Intestine Fluid, read-out: Tsol FaSSIF
[4] = Fed State Simulated Intestine Fluid (FeSSIF), fessif, Fed State Simulated Intestine Fluid, read-out: Tsol FeSSIF

solubility thermodynamic at 24 h [1, 3] | solubility thermodynamic at 24 h [1, 4] | IC50 [2] | solubility thermodynamic at 24 h ([1]; Fasted State Simulated Gastric Fluid (FaSSGF), fassgf or other biorelevant, Fasted State Simulated Gastric Fluid, read-out: Tsol FaSSGF) | SMILES
11.3 µg/mL (≈ 27.5 µM) | 83.4 µg/mL (≈ 203 µM) | 0.0001 to 0.5 µM | – | COc1cn2nc(CCC(C)(C)O)cc2cc1NC(=O)c1cccn(C2CC2)c1=O [Compound 1, 1-cyclopropyl-N-[2-(3-hydroxy-3-methylbutyl)-6-methoxypyrazolo[1,5-a]pyridin-5-yl]-2-oxopyridine-3-carboxamide]
28.5 µg/mL (≈ 68.9 µM) | 105 µg/mL (≈ 254 µM) | 0.0001 to 0.5 µM | 200 µg/mL (≈ 484 µM) | [2H]C([2H])([2H])Oc1cn2nc(CCC(C)(C)O)cc2cc1NC(=O)c1cccn(C2CC2)c1=O [Compound 24, 1-cyclopropyl-N-[2-(3-hydroxy-3-methylbutyl)-6-(trideuteriomethoxy)pyrazolo[1,5-a]pyridin-5-yl]-2-oxopyridine-3-carboxamide]
